# Data taken from patent EP1345943B1, “INHIBITORS OF PAPILLOMA VIRUS” (BOEHRINGER INGELHEIM (CANADA) LTD., priority 2000, dated 2002).
# Target: E1-E2-DNA complex (Human papillomavirus 11, UniProt P04015)
# Assay: E2-dependent E1 DNA binding assay (E1-E2 DNA assay)
# Conditions: E1-E2 DNA assay of Example 11, HPV-11
# Summary of the method: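 SPA-format binding of E1 (about 100-200 ng purified) and E2 (8 ng) to a 0.4 ng [33P]-labelled 400 bp HPV-11 origin probe, in 20 mM Tris pH 7.6, 100 mM NaCl, 1 mM DTT, 1 mM EDTA, for 1 h at room temperature. Complex captured 1 h with anti-E1 C-terminal antiserum on protein A-SPA beads and counted by scintillation; IC50 derived.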
# Chain of E1-E2-DNA complex (P04015 whole entry, one chain of several): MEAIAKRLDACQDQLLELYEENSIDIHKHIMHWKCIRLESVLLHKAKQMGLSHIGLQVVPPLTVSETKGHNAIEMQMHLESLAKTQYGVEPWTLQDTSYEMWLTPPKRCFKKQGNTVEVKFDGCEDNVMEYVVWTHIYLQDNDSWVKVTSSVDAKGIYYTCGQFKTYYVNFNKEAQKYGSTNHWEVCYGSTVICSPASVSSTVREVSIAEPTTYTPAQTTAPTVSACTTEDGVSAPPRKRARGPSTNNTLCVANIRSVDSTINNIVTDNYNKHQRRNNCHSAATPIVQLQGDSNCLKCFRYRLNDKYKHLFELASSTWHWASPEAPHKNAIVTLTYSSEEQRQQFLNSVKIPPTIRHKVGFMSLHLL
row,Structure (SMILES),IC50
1,O=C(Nc1ccc(OC(F)(F)F)cc1)C1C(c2ccc(Br)c(Br)c2)OC2(C(=O)c3ccccc3C2=O)C1C(=O)O (stereo not drawn) [Compound 1118],0.5 to 5 µM
2,O=C(Nc1cccc(Cl)c1)C1C(c2ccc(Br)c(Br)c2)OC2(C(=O)c3ccccc3C2=O)C1C(=O)O (stereo not drawn) [Compound 1119],< 0.5 µM
3,O=C(Nc1cc(F)cc(F)c1)C1C(c2ccc(F)c(Cl)c2)OC2(C(=O)c3ccccc3C2=O)C1C(=O)O (stereo not drawn) [Compound 1120],0.5 to 5 µM
4,O=C(Nc1ccc(Br)c(Cl)c1)C1C(c2ccc(F)c(Cl)c2)OC2(C(=O)c3ccccc3C2=O)C1C(=O)O (stereo not drawn) [Compound 1121],0.5 to 5 µM
5,O=C(Nc1ccc(F)c(F)c1)C1C(c2ccc(F)c(Cl)c2)OC2(C(=O)c3ccccc3C2=O)C1C(=O)O (stereo not drawn) [Compound 1122],5 to 50 µM
6,O=C(Nc1ccccc1Cl)C1C(c2ccc(Cl)c(Cl)c2)OC2(C(=O)c3ccccc3C2=O)C1C(=O)O (stereo not drawn) [Compound 1123],< 0.5 µM
7,COc1ccccc1NC(=O)C1C(c2ccc(Cl)c(Cl)c2)OC2(C(=O)c3ccccc3C2=O)C1C(=O)O (stereo not drawn) [Compound 1124],0.5 to 5 µM
8,O=C(Nc1ccccc1F)C1C(c2ccc(Cl)c(Cl)c2)OC2(C(=O)c3ccccc3C2=O)C1C(=O)O (stereo not drawn) [Compound 1125],< 0.5 µM
9,Cc1cc(C)cc(NC(=O)C2C(c3ccc(Cl)c(Cl)c3)OC3(C(=O)c4ccccc4C3=O)C2C(=O)O)c1 (stereo not drawn) [Compound 1126],0.5 to 5 µM
10,N#Cc1cccc(NC(=O)C2C(c3ccc(Cl)c(Cl)c3)OC3(C(=O)c4ccccc4C3=O)C2C(=O)O)c1 (stereo not drawn) [Compound 1127],0.5 to 5 µM
11,COc1ccc2c(c1)C(=O)C1(OC(c3ccc(Cl)c(Cl)c3)C(C(=O)Nc3ccc(C(C)=O)cc3)C1C(=O)O)C2=O (stereo not drawn) [Compound 1129],5 to 50 µM
12,COc1ccc2c(c1)C(=O)C1(OC(c3ccc(Cl)c(Cl)c3)C(C(=O)Nc3ccc(C(C)=O)cc3)C1C(=O)O)C2=O (stereo not drawn) [Compound 1130],5 to 50 µM
13,O=C(Nc1ccc(OC(F)(F)F)cc1)C1C(c2ccc(F)c(Cl)c2)OC2(C(=O)c3ccccc3C2=O)C1C(=O)O (stereo not drawn) [Compound 1131],0.5 to 5 µM
14,Cc1ccc(NC(=O)C2C(c3ccc(F)c(F)c3)OC3(C(=O)c4ccccc4C3=O)C2C(=O)O)cc1 (stereo not drawn) [Compound 1132],5 to 50 µM
15,O=C(Nc1ccc(Cl)c(Cl)c1)C1C(c2ccc(Br)c(Br)c2)OC2(C(=O)c3ccccc3C2=O)C1C(=O)O (stereo not drawn) [Compound 1134],< 0.5 µM
16,O=C(NCCc1ccccc1Cl)C1C(c2ccc(Cl)c(Cl)c2)OC2(C(=O)c3ccccc3C2=O)C1C(=O)O (stereo not drawn) [Compound 1135],< 0.5 µM
17,CCOc1ccccc1NC(=O)C1C(c2ccc(Cl)c(Cl)c2)OC2(C(=O)c3ccccc3C2=O)C1C(=O)O (stereo not drawn) [Compound 1136],5 to 50 µM
18,COc1ccc(OC)c(CCNC(=O)C2C(c3ccc(Cl)c(Cl)c3)OC3(C(=O)c4ccccc4C3=O)C2C(=O)O)c1 (stereo not drawn) [Compound 1137],0.5 to 5 µM
19,O=C(NCCc1cccs1)C1C(c2ccc(Cl)c(Cl)c2)OC2(C(=O)c3ccccc3C2=O)C1C(=O)O (stereo not drawn) [Compound 1138],< 0.5 µM

row,Structure (SMILES),IC50
1,O=C(Nc1ccccc1OC(F)(F)F)C1C(c2ccc(Cl)c(Cl)c2)OC2(C(=O)c3ccccc3C2=O)C1C(=O)O (stereo not drawn) [Compound 1139],0.5 to 5 µM
2,CN(CCN(C)c1ccc([N+](=O)[O-])c2nonc12)C(=O)CNCc1ccc(NC(=O)C2C(c3ccc(Cl)c(Cl)c3)OC3(C(=O)c4ccccc4C3=O)C2C(=O)O)cc1 (stereo not drawn) [Compound 1140],0.5 to 5 µM
3,CCCCC(=O)Nc1cc(C2OC3(C(=O)c4ccccc4C3=O)C(C(=O)O)C2C(=O)Nc2ccc(C(C)=O)cc2)ccc1Cl (stereo not drawn) [Compound 1141],0.5 to 5 µM
4,O=C(Nc1ccccc1Br)C1C(c2cc(Cl)cc(Cl)c2)OC2(C(=O)c3ccccc3C2=O)C1C(=O)O (stereo not drawn) [Compound 1142],< 0.5 µM
5,O=C(Nc1ccc(N2CCOCC2)cc1)C1C(c2ccc(Br)c(Br)c2)OC2(C(=O)c3ccc(F)cc3C2=O)C1C(=O)O (stereo not drawn) [Compound 1143],< 0.5 µM
6,O=C(Nc1ccc(N2CCOCC2)cc1)C1C(c2ccc(Br)c(Br)c2)OC2(C(=O)c3ccc(F)cc3C2=O)C1C(=O)O (stereo not drawn) [Compound 1144],< 0.5 µM
7,O=C1C2C(c3ccc(Cl)cc3)OC3(C(=O)c4ccccc4C3=O)C2C(=O)N1c1ccc2c(c1)OCO2 (stereo not drawn) [Compound 2001],5 to 50 µM
8,COc1ccc(N2C(=O)C3C(c4ccc(Cl)cc4)OC4(C(=O)c5ccccc5C4=O)C3C2=O)cc1OC (stereo not drawn) [Compound 2002],5 to 50 µM
9,CC(=O)c1ccc(N2C(=O)C3C(c4ccc(Cl)cc4)OC4(C(=O)c5ccccc5C4=O)C3C2=O)cc1 (stereo not drawn) [Compound 2003],5 to 50 µM
10,O=C1C2C(c3ccc(Cl)cc3)OC3(C(=O)c4ccccc4C3=O)C2C(=O)N1c1ccc(F)cc1 (stereo not drawn) [Compound 2004],5 to 50 µM
11,O=C1C2C(c3cccc(Cl)c3)OC3(C(=O)c4ccccc4C3=O)C2C(=O)N1c1ccc2c(c1)OCO2 (stereo not drawn) [Compound 2005],0.5 to 5 µM
12,Cc1ccc(N2C(=O)C3C(c4ccc(Cl)cc4)OC4(C(=O)c5ccccc5C4=O)C3C2=O)cc1 (stereo not drawn) [Compound 2006],5 to 50 µM
13,O=C1C2C(c3ccc(Cl)cc3)OC3(C(=O)c4ccccc4C3=O)C2C(=O)N1c1ccc(Cl)cc1 (stereo not drawn) [Compound 2007],5 to 50 µM
14,O=C1C2C(c3ccc(C(F)(F)F)cc3)OC3(C(=O)c4ccccc4C3=O)C2C(=O)N1c1ccc2c(c1)OCO2 (stereo not drawn) [Compound 2008],5 to 50 µM
15,O=C1C2C(c3ccc(Cl)cc3)OC3(C(=O)c4ccccc4C3=O)C2C(=O)N1c1cccc(Cl)c1 (stereo not drawn) [Compound 2009],5 to 50 µM
16,Cc1cccc(N2C(=O)C3C(c4ccc(Cl)cc4)OC4(C(=O)c5ccccc5C4=O)C3C2=O)c1 (stereo not drawn) [Compound 2010],5 to 50 µM
17,O=C1C2C(c3ccc(Cl)cc3)OC3(C(=O)c4ccccc4C3=O)C2C(=O)N1c1cccc(C(F)(F)F)c1 (stereo not drawn) [Compound 2011],5 to 50 µM
18,O=C1C2C(c3ccc(Cl)cc3)OC3(C(=O)c4ccccc4C3=O)C2C(=O)N1c1ccc2c(c1)CCC2 (stereo not drawn) [Compound 2012],5 to 50 µM
19,Cc1cccc(C2OC3(C(=O)c4ccccc4C3=O)C3C(=O)N(c4ccc5c(c4)OCO5)C(=O)C23)c1 (stereo not drawn) [Compound 2014],5 to 50 µM

row,Structure (SMILES),IC50
1,O=C1C2C(c3ccc(Cl)cc3)OC3(C(=O)c4ccccc4C3=O)C2C(=O)N1c1ccc(C(F)(F)F)cc1 (stereo not drawn) [Compound 2015],5 to 50 µM
2,CC(C)(C)OC(=O)Nc1ccc(N2C(=O)C3C(c4ccc(Cl)c(Cl)c4)OC4(C(=O)c5ccccc5C4=O)C3C2=O)cc1 (stereo not drawn) [Compound 2018],5 to 50 µM
3,Nc1ccc(N2C(=O)C3C(c4ccc(Cl)c(Cl)c4)OC4(C(=O)c5ccccc5C4=O)C3C2=O)cc1 (stereo not drawn) [Compound 2019],0.5 to 5 µM
4,O=C1C2C(c3ccc(Cl)c(Cl)c3)OC3(C(=O)c4ccccc4C3=O)C2C(=O)N1c1ccc(O)cc1 (stereo not drawn) [Compound 2021],< 0.5 µM
5,O=C(CNCc1ccc(N2C(=O)C3C(c4ccc(Cl)c(Cl)c4)OC4(C(=O)c5ccccc5C4=O)C3C2=O)cc1)NCCNc1cccc2c(S(=O)(=O)O)cccc12 (stereo not drawn) [Compound 2022],5 to 50 µM
6,O=C1C2C(c3ccc(Br)c(Br)c3)OC3(C(=O)c4ccccc4C3=O)C2C(=O)N1c1ccc(N2CCOCC2)cc1 (stereo not drawn) [Compound 2023],< 0.5 µM
7,CC(NC(=O)C1C(c2ccc(Cl)c(Cl)c2)OC23C(=O)c4ccccc4C2(O)OC(=O)C13)c1ccccc1 (stereo not drawn) [Compound 3100],5 to 50 µM
8,O=C(Nc1ccc2c(c1)OCO2)C1C(c2ccc3ccccc3c2)OC2(C(=O)c3ccccc3C2=O)C1C(=O)O (stereo not drawn) [Compound 4001],0.5 to 5 µM
9,O=C(Nc1ccc2c(c1)OCO2)C1C(c2cc3ccccc3o2)OC2(C(=O)c3ccccc3C2=O)C1C(=O)O (stereo not drawn) [Compound 4002],5 to 50 µM
10,O=C(Nc1ccc2c(c1)OCO2)C1C(c2ccc3c(c2)OCO3)OC2(C(=O)c3ccccc3C2=O)C1C(=O)O (stereo not drawn) [Compound 4003],5 to 50 µM
11,CC(=O)c1ccc(NC(=O)C2C(c3ccc4ccccc4c3)OC3(C(=O)c4ccccc4C3=O)C2C(=O)O)cc1 (stereo not drawn) [Compound 4004],0.5 to 5 µM
12,CC(=O)c1ccc(NC(=O)C2C(C=Cc3cccc(Br)c3)OC3(C(=O)c4ccccc4C3=O)C2C(=O)O)cc1 (stereo not drawn) [Compound 4006],5 to 50 µM
13,CC(=O)c1ccc(NC(=O)C2C(C=Cc3ccccc3Br)OC3(C(=O)c4ccccc4C3=O)C2C(=O)O)cc1 (stereo not drawn) [Compound 4007],0.5 to 5 µM
14,CC(=O)c1ccc(NC(=O)C2C(C=Cc3cccc(Cl)c3Cl)OC3(C(=O)c4ccccc4C3=O)C2C(=O)O)cc1 (stereo not drawn) [Compound 4010],0.5 to 5 µM
15,CC(=O)c1ccc(NC(=O)C2C(C=Cc3ccccc3C)OC3(C(=O)c4ccccc4C3=O)C2C(=O)O)cc1 (stereo not drawn) [Compound 4011],5 to 50 µM
16,O=C(NCc1ccc2c(c1)OCO2)C1C(c2ccc(Cl)c(Cl)c2)OC2(C(=O)c3ccccc3C2=O)C1C(=O)O (stereo not drawn) [Compound 6001],5 to 50 µM
17,Cc1ccc2c(c1)C(=O)C1(OC(c3ccc(Br)c(Br)c3)C(C(=O)Nc3ccc(-c4csnn4)cc3)C1C(=O)O)C2=O (stereo not drawn) [Compound A1009],5 to 50 µM
18,CC(=O)c1ccc(NC(=O)C2C(c3ccc(Cl)c(Cl)c3)OC34C(=O)c5sc(C)cc5C3(O)OC(=O)C24)cc1 (stereo not drawn) [Compound C1001],5 to 50 µM
19,Cc1cc2c(s1)C(=O)C13OC(c4ccc(Br)c(Br)c4)C(C(=O)Nc4ccc(CNC(=O)OC(C)(C)C)cc4)C1C(=O)OC23O (stereo not drawn) [Compound C1003],0.5 to 5 µM
